# Assay results: publication PMC4197230, “Terpene synthases and their contribution to herbivore-induced volatile emission in western balsam poplar (Populus trichocarpa)” (BMC Plant Biology, 2014)
# Experiments:
# Type in all cases: biochemical
# PtTPS14 = target: T1, PtTPS14 (Populus trichocarpa, UniProt A0A076GBU1); experiment: SPME GC-MS product analysis, bacterial extract; settings: 10 uM FPP, 10 mM MgCl2, pH 7.0, 30 C; desalted E. coli extract, empty-vector control; marginal activity
# T1 construct: gene TPS14; full ORF in pASK-IBA7 (vector tag, if any, not described), E. coli TOP10, desalted bacterial extract
# T1 sequence (A0A076GBU1 1-560): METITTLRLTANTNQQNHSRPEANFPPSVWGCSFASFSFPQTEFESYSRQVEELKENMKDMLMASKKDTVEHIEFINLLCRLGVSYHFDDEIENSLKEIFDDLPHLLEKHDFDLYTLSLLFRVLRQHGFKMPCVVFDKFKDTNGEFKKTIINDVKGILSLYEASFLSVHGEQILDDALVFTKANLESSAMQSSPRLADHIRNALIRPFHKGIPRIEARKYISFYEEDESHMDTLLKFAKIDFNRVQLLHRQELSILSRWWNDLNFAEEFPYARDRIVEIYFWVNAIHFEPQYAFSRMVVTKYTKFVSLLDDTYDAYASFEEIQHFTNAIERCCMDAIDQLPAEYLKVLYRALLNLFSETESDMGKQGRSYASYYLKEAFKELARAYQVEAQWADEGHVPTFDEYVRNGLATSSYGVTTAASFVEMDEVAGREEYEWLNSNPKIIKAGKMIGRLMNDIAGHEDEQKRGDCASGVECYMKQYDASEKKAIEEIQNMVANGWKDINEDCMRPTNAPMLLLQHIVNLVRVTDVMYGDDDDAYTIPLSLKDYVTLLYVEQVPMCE
# PtTPS9 = target: T2, PtTPS9 (Populus trichocarpa, UniProt A0A076GBT5); experiment: SPME GC-MS product analysis, bacterial extract; settings: 10 uM FPP, 10 mM MgCl2, pH 7.0, 30 C; desalted E. coli extract, empty-vector control
# T2 construct: gene TPS9; full ORF in pASK-IBA7 (vector tag, if any, not described), E. coli TOP10, desalted bacterial extract
# T2 sequence (A0A076GBT5 1-569): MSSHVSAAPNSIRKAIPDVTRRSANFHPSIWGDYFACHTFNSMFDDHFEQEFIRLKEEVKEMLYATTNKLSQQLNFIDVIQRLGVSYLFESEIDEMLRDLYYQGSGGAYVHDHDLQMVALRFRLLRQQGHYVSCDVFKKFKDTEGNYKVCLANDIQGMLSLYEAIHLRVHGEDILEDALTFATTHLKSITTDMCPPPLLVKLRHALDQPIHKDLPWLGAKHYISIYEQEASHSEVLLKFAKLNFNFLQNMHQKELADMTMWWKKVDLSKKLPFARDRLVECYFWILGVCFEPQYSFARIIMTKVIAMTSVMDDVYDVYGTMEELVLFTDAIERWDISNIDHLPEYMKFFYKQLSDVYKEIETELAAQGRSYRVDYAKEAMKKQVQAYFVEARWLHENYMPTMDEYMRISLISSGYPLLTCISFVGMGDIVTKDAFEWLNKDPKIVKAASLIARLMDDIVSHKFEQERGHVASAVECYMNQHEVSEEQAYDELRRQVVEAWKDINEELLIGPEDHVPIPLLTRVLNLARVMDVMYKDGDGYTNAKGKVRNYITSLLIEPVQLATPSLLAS
# PtTPS15 = target: T3, PtTPS15 (Populus trichocarpa, UniProt A0A076GBT1); experiment: SPME GC-MS product analysis, bacterial extract; settings: 10 mM MgCl2, pH 7.0, 30 C, desalted E. coli extract, empty-vector control
# T3 construct: gene TPS15; full ORF in pASK-IBA7 (vector tag, if any, not described), E. coli TOP10, desalted bacterial extract
# T3 sequence (A0A076GBT1 1-528): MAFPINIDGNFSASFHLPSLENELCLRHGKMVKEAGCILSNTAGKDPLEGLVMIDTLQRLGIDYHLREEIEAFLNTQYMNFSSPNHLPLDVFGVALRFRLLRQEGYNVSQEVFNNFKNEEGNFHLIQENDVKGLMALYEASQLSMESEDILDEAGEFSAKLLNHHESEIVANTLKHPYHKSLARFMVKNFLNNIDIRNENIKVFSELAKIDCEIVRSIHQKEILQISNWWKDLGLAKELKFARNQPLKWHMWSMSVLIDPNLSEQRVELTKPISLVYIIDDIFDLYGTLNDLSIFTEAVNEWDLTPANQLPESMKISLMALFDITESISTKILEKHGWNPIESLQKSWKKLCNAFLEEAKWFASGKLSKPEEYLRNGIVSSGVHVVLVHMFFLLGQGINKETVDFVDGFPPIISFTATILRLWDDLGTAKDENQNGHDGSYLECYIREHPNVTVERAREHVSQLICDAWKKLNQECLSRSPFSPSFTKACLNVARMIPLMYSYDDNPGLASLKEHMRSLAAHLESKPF
# PtTPS12 = target: T4, PtTPS12 (Populus trichocarpa, UniProt A0A076GAU9); experiment: SPME GC-MS product analysis, bacterial extract; settings: 10 mM MgCl2, pH 7.0, 30 C, desalted E. coli extract, empty-vector control
# T4 construct: gene TPS12; N-terminally truncated (first 126 nt deleted, predicted plastid transit peptide), pASK-IBA7, E. coli TOP10, desalted bacterial extract
# PtTPS10 = target: T5, PtTPS10 (Populus trichocarpa, UniProt A0A076GH23); experiment: hexane overlay GC-MS product analysis, bacterial extract; settings: 50 uM GGPP, 10 mM MgCl2, pH 7.0, 30 C, 60 min; desalted E. coli extract, empty-vector control
# T5 construct: gene TPS10; full ORF in pASK-IBA7 (vector tag, if any, not described), E. coli TOP10, desalted bacterial extract
# T5 sequence (A0A076GH23 1-836): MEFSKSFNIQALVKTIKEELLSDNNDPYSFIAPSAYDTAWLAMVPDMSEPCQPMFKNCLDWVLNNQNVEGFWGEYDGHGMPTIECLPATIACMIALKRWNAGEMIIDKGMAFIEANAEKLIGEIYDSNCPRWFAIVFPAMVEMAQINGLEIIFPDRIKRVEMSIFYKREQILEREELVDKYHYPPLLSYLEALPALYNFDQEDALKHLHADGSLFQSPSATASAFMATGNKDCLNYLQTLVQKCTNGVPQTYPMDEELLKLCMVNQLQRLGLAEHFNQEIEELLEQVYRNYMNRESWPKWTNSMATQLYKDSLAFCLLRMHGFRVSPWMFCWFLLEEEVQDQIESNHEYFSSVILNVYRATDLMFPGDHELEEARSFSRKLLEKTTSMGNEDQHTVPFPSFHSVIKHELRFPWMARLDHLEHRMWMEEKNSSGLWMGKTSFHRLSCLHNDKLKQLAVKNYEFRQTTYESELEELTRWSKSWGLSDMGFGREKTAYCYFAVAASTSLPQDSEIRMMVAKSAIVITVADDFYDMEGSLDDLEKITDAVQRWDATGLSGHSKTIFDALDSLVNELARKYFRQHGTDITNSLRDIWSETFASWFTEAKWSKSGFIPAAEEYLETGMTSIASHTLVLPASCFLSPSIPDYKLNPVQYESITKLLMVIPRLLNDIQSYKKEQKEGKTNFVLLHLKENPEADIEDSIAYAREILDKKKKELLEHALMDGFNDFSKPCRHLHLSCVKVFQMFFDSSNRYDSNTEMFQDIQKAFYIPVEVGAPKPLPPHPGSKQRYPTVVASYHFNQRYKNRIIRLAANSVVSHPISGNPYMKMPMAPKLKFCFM
# PtTPS6 = target: T6, PtTPS6 (Populus trichocarpa, UniProt A0A076GAR5); experiment: SPME GC-MS product analysis, bacterial extract; settings: 10 uM GPP, 10 mM MgCl2, pH 7.0, 30 C; desalted E. coli extract, empty-vector control
# T6 construct: gene TPS6; N-terminally truncated (first 57 nt deleted, predicted plastid transit peptide), pASK-IBA7, E. coli TOP10, desalted bacterial extract
# PtTPS11 = target: T7, PtTPS11 (Populus trichocarpa, UniProt A0A076GAR6); experiment: SPME GC-MS product analysis, bacterial extract; settings: 10 uM GPP, 10 mM MgCl2, pH 7.0, 30 C; desalted E. coli extract, empty-vector control
# T7 construct: gene TPS11; full ORF in pASK-IBA7 (vector tag, if any, not described), E. coli TOP10, desalted bacterial extract
# T7 sequence (A0A076GAR6 1-551): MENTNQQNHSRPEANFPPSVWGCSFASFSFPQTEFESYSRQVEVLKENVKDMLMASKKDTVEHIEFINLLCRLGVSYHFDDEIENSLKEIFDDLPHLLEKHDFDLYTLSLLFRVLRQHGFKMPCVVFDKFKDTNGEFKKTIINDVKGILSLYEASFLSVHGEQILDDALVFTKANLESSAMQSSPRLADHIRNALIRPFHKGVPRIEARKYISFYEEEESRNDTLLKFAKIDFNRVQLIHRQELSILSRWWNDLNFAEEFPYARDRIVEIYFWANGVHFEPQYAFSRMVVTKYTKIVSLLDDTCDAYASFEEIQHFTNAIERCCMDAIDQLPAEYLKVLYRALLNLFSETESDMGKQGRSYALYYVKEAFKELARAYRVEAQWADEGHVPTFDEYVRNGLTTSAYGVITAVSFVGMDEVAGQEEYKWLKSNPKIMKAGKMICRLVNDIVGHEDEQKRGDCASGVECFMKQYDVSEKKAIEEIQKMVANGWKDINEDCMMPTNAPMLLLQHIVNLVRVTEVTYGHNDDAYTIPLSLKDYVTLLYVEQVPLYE
# T4 sequence (A0A076GAU9 entry or part of it): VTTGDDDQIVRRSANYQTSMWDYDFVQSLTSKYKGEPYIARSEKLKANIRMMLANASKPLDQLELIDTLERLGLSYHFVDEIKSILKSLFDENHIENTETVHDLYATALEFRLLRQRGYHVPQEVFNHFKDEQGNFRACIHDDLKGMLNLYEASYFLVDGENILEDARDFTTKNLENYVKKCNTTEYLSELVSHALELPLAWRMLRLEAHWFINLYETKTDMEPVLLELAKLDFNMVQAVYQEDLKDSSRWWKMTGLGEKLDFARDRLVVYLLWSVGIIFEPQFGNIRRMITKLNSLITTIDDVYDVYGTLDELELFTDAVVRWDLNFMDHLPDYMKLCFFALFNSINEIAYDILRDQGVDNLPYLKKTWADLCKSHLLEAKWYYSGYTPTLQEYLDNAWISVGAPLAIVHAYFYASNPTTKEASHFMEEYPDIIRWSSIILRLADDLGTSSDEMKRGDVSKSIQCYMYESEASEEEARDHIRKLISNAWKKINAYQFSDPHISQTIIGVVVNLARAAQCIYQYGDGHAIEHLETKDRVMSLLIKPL
# T6 sequence (A0A076GAR5 entry or part of it): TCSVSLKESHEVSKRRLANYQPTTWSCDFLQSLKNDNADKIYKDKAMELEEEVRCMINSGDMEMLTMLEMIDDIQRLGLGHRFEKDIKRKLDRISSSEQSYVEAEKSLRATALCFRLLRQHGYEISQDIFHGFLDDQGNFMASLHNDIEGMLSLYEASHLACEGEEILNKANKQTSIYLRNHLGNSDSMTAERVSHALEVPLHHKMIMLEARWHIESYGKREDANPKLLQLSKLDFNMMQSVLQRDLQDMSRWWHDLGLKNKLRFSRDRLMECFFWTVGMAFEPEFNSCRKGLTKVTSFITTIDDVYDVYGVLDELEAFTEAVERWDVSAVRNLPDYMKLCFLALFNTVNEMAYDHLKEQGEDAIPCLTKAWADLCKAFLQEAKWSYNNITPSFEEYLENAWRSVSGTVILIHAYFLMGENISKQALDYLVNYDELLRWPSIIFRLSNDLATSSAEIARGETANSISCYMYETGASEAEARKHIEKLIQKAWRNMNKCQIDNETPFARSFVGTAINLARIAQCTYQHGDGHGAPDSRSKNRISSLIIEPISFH
smiles,measurement,setting,value
CC(C)=CCC/C(C)=C/CC/C(C)=C/COP(=O)(O)OP(=O)(O)O [FPP],"SPME GC-MS product analysis, bacterial extract",PtTPS14,PtTPS14 showed only marginal activity with FPP and produced trace amounts of germacrene D
same,"SPME GC-MS product analysis, bacterial extract",PtTPS9,PtTPS9 produced (E)-β-caryophyllene and smaller amounts of α-humulene
same,"SPME GC-MS product analysis, bacterial extract",PtTPS15; 10 uM FPP,PtTPS15 was able to convert FPP to nerolidol
same,"SPME GC-MS product analysis, bacterial extract",PtTPS12; 10 uM FPP,PtTPS12 showed a broad sesquiterpene product spectrum
CC(C)=CCC/C(C)=C/CC/C(C)=C/CC/C(C)=C/COP(=O)(O)OP(=O)(O)O [GGPP],"hexane overlay GC-MS product analysis, bacterial extract",PtTPS10,PtTPS10 represented a DTS and was able to convert GGPP into geranyllinalool
CC(C)=CCC/C(C)=C/COP(=O)(O)OP(=O)(O)O [GPP],"SPME GC-MS product analysis, bacterial extract",PtTPS15; 10 uM GPP,"PtTPS15, which produced only linalool"
same,"SPME GC-MS product analysis, bacterial extract",PtTPS12; 10 uM GPP,PtTPS12 which formed linalool and trace amounts of β-phellandrene
same,"SPME GC-MS product analysis, bacterial extract",PtTPS6,"(PtTPS6, PtTPS12, PtTPS13 and PtTPS15) accepted GPP as substrate and produced monoterpenes"
same,"SPME GC-MS product analysis, bacterial extract",PtTPS11,"When offered GPP as a substrate, PtTPS11 formed several monoterpenes"
